{"source": "patent US12691114B2", "about": "“Compositions for inhibition of herpesviruses” (The Medical College of Wisconsin, Inc., priority 2020, dated 2026)", "key": {"in vitro": {"assay": "in vitro", "details": "human", "protocol": "(§1) Cytotoxicity assay: MTT assay was performed as described by manufacturer's instructions (Sigma-Aldrich). Non-infected cells were treated with compounds for 72 h or 10 days (same time points of the antiviral assay), and 20 μL/well of MTT [3-(4, 5-Dimethyl-2-thiazolyl)-2, 5-diphenyl-2H-tetrazolium bromide], 5 mg/mL in phosphate buffered saline (PBS)] was added to each well. After shaking at 150 rpm for 5 min the plates were incubated at 37° C. for 2-3 h. Conversion of yellow solution to dark blue formazan by mitochondrial dehydrogenases of living cells was quantified by measuring absorbance at 560 nm.\n(§2) HCMV inhibition was measured by luciferase activity of pp28-recombinant Towne and pp28 GCV-resistant Towne strains of HCMV (72 hpi) and by plaque reduction using HCMV Towne or TB40 (10 days). Viral protein expression was measured by Western blot."}, "HCMV": {"test_system": "HCMV", "assay": "Drug combination of GCV and 2955 by plaque assay, Bliss model", "type": "cell-based, human cytomegalovirus", "details": "Human betaherpesvirus 5; combination experiment with GCV, plaque assay; read-out: EC50 (μM) of Compound 2", "protocol": "Drug combination and analysis: These experiments were performed as previously reported^40. The combination of GCV and each compound was tested using the pp28-luciferase. Briefly, 2×10^6 HFFs/plate were seeded in 96-well plates and infected with the pp28-luciferase Towne HCMV strain (MOI=1). First, a dose response curve was generated for each drug individually to determine its EC50. Then, drugs were combined at twice their EC50, diluted in DMEM with 4% FBS, followed by serial dilution and added together after infection. Luciferase activity of the combination and each drug individually was quantified at 72 hpi. The combination of letermovir and each of the new compounds was tested by the plaque assay using TB40. The same principle applied in this assay for the drug combination effect, and plaques were counted at 8 dpi. The Bliss model was used to calculate the effect of each drug combination on pp28-luciferase activity and plaque reduction. […]\n(§3) Pattern of drug combination with GCV and letermovir: The effect of each compound alone or in combination with GCV or letermovir was tested in HCMV-infected HFFs. […] For letermovir and its combination with each of the five compounds the EC50 was determined based on plaque assay. […] All other combinations and Bliss coefficients were measured by pp28- luciferase."}, "MEFs": {"test_system": "MEFs", "assay": "Toxicity to MEFs", "type": "cell-based, mouse"}, "GCV-resistant HCMV Towne": {"test_system": "GCV-resistant HCMV Towne", "assay": "Plaque reduction assay, GCV-resistant HCMV Towne in HFFs", "type": "cell-based, human cytomegalovirus", "details": "Human betaherpesvirus 5, read-out: EC50—GCVR Towne (μM)"}, "non-infected HFFs": {"test_system": "non-infected HFFs", "assay": "in vitro", "protocol": "as §1, §2"}, "[1]": {"target": "pp28-luciferase Towne HCMV", "assay": "Drug combination with GCV, pp28-luciferase Towne, Bliss model", "type": "cell-based, human cytomegalovirus", "details": "combination experiment with GCV, pp28-luciferase; read-out: EC50 (μM) of Compound 2", "protocol": "Drug combination and analysis: These experiments were performed as previously reported^40. The combination of GCV and each compound was tested using the pp28-luciferase. Briefly, 2×10^6 HFFs/plate were seeded in 96-well plates and infected with the pp28-luciferase Towne HCMV strain (MOI=1). First, a dose response curve was generated for each drug individually to determine its EC50. Then, drugs were combined at twice their EC50, diluted in DMEM with 4% FBS, followed by serial dilution and added together after infection. Luciferase activity of the combination and each drug individually was quantified at 72 hpi. The combination of letermovir and each of the new compounds was tested by the plaque assay using TB40. The same principle applied in this assay for the drug combination effect, and plaques were counted at 8 dpi. The Bliss model was used to calculate the effect of each drug combination on pp28-luciferase activity and plaque reduction. In this model, drug combination represents the product of two probabilistically independent events as described in the following equation^41.\n[formula] Where D is the drug concentration, m is the slope, and EC50 is the effective concentration resulting in 50% virus inhibition. The combined effect of two inhibitors (Fu, fractional unaffected) is computed as the product of individual effects of the two inhibitors, Fu1 and Fu2. If the ratio of observed fold inhibition divided by the expected fold inhibition is greater than 1, the compounds are synergistic. If the ratio is less than 1, the combination is considered antagonistic, and if it equals to 1 the combination is additive.\nas §3"}, "HSV2 clinical isolate": {"test_system": "HSV2 clinical isolate", "assay": "Plaque reduction assay, HSV2 in Vero cells", "type": "cell-based, Human Herpesvirus 2", "details": "plaque reduction", "text": "Viruses and antiviral assays: A recombinant pp28-luciferase Towne HCMV strain expressing luciferase under the control of the UL99 (pp28) late promoter was reported to provide a highly-sensitive and reproducible reporter for drug screening^20. A GCV-resistant HCMV pp28-luciferase that contains a C607Y mutation in UL97 was reported^37. The HCMV TB40 strain was obtained from ATCC (VR-1578). Clinical isolates of Human Herpesvirus 1 and 2 (HSV1, HSV2) were collected from the Johns Hopkins Microbiology laboratory without identifiers that could link them to a specific patient. Mouse CMV (MCMV) Smith strain (ATCC VR-1399) was used for infection of MEFs.\nPlaque reduction assay: HFFs were seeded into 12-well plates (2×10^5 cells/well) and infected with HCMV TB40 at approximately 100 plaques/well. After 90 min, media were aspirated, and DMEM containing 0.5% carboxymethyl-cellulose (CMC), 4% fetal bovine serum (FBS), and drugs were added into duplicate wells. Following incubation at 37° C. for 10-12 days the overlay was removed, and plaques were counted after crystal violet staining. For HSV1 and HSV2 replication in Vero cells, the adsorption time was 60 min and plaques were counted after 36 h. Plaque assays in MEFs were completed after 3 days.\n(§4) Inhibition of other herpesviruses: Inhibition of herpes simplex 1 and 2 (HSV1, HSV2), Epstein Barr virus (EBV) and mouse CMV (MCMV) was tested with the five compounds. Plaque reductions assays were used for HSV1, HSV2 and MCMV. Inhibition of lytic EBV replication was measured by real-time PCR in AKATA cells following IgG induction. Only MLS8554 was active against HSV1, HSV2 and MCMV (Table 2)."}, "Epstein Barr Virus (EBV)": {"test_system": "Epstein Barr Virus (EBV)", "assay": "Inhibition of lytic EBV replication in Akata cells, real-time PCR of BALF5", "type": "cell-based", "details": "real-time PCR at 48 hours, NA = Not active", "protocol": "Inhibition of lytic Epstein Barr Virus (EBV) replication: Akata cells (0.5×10^6/well of 24-well plate) latently infected with EBV were induced with 100 μg/ml of goat antihuman IgG (Sigma). Compounds and GCV control were added to triplicate wells immediately after the addition of human IgG. Cells were collected 48 hours after lytic induction for DNA quantification. Cellular DNA was purified using Wizard SV Genomic Kit (Promega, Madison, WI). The effect of the compounds on lytic induction of EBV was analyzed by real-time PCR of the EBV DNA polymerase gene, BALF5^38.\nas §4"}}}
{"compound": "CC(C)NC(=O)C1CCN(C(=O)c2cc3sccc3n2Cc2ccc(Cl)cc2)CC1", "note": "[NCGC2955, 1-(4-(4-chlorobenzyl)-4H-thieno[3,2-b]pyrrole-5-carbonyl)-N-isopropylpiperidine-4-carboxamide]", "values": [{"measurement": "CC50", "setting": "in vitro", "result": "> 200", "unit": "µM"}, {"measurement": "EC50", "setting": "HCMV", "result": "1.51 ± 0.03", "unit": "µM"}, {"measurement": "concentration at which toxicity to MEFs was observed", "setting": "MEFs", "result": "≥ 10", "unit": "µM"}, {"measurement": "EC50", "setting": "GCV-resistant HCMV Towne", "result": "1.4 ± 0.2", "unit": "µM"}]}
{"compound": "CCc1ccc(NC(=O)[C@H](Cc2c[nH]c3ccccc23)NC(=O)[C@@H]2Cc3ccccc3CN2)cc1", "note": "[MLS8554]", "values": [{"measurement": "CC50", "setting": "non-infected HFFs", "result": 86, "unit": "µM"}, {"measurement": "EC50", "setting": "[1]", "result": "0.55 ± 0.02", "unit": "µM"}, {"measurement": "activity against HSV2, in words", "setting": "HSV2 clinical isolate", "result": "active"}, {"measurement": "EC50", "setting": "HSV2 clinical isolate; Vero cells, NA = Not active, read-out: EC50—HSV2-C1", "result": "1.3 ± 0.1", "unit": "µM"}]}
{"compound": "CCN1CCN(CCCNC(=O)c2ccc3c(c2)sc2nc(-c4ccc(OC)cc4)cn23)CC1", "note": "[NFU1827, N-[3-(4-ethylpiperazin-1-yl)propyl]-4-(4-methoxyphenyl)-7-thia-2,5-diazatricyclo [6.4.0.02,6] dodeca-1(8),3,5,9,11-pentaene-10-carboxamide]", "values": [{"measurement": "EC50", "setting": "Epstein Barr Virus (EBV); human gammaherpesvirus 4, IgG induction", "result": "1.92 ± 0.1", "unit": "µM"}, {"measurement": "CC50", "setting": "in vitro", "result": 70.9, "unit": "µM"}]}
{"compound": "Nc1c(S(=O)(=O)c2cccs2)c2nc3ccccc3nc2n1Cc1ccccc1", "note": "[MLS8091]", "values": [{"measurement": "EC50", "setting": "Epstein Barr Virus (EBV); IgG induction", "result": "> 10", "unit": "µM"}, {"measurement": "CC50", "setting": "non-infected HFFs", "result": "> 250", "unit": "µM"}, {"measurement": "EC50", "setting": "[1]", "result": "0.57 ± 0.07", "unit": "µM"}]}
